The supplement of paper PMC13380429

Key:
Settings in all cases: 72 h
HepG2 [1] = assay: cell viability relative to DMSO; higher = less toxic
Vero E6 [2] = assay: as above
Caco-2 [3] = assay: as above
Calu-3 [4] = assay: as above
U2OS [5] = assay: as above
HepG2 [6] = assay: relative viability EC50 (midpoint between 100% and the lowest measured viability); higher = less toxic
Vero E6 [7] = assay: as above
Caco-2 [8] = assay: as above
Calu-3 [9] = assay: as above
U2OS [10] = assay: as above
HepG2 [11] = assay: drug sensitivity score (DSS) for viability; higher = more toxic; extreme values may be limits of the assay
Vero E6 [12] = assay: as above
Caco-2 [13] = assay: as above
Calu-3 [14] = assay: as above
U2OS [15] = assay: as above

Row | SMILES | cell viability (HepG2 [1]; 1 nM) [%] | cell viability (HepG2 [1]; 10 nM) [%] | cell viability (HepG2 [1]; 100 nM) [%] | cell viability (HepG2 [1]; 1000 nM) [%] | cell viability (HepG2 [1]; 10000 nM) [%] | cell viability (Vero E6 [2]; 1 nM) [%] | cell viability (Vero E6 [2]; 10 nM) [%] | cell viability (Vero E6 [2]; 100 nM) [%] | cell viability (Vero E6 [2]; 1000 nM) [%] | cell viability (Vero E6 [2]; 10000 nM) [%] | cell viability (Caco-2 [3]; 1 nM) [%] | cell viability (Caco-2 [3]; 10 nM) [%] | cell viability (Caco-2 [3]; 100 nM) [%] | cell viability (Caco-2 [3]; 1000 nM) [%] | cell viability (Caco-2 [3]; 10000 nM) [%] | cell viability (Calu-3 [4]; 1 nM) [%] | cell viability (Calu-3 [4]; 10 nM) [%] | cell viability (Calu-3 [4]; 100 nM) [%] | cell viability (Calu-3 [4]; 1000 nM) [%] | cell viability (Calu-3 [4]; 10000 nM) [%] | cell viability (U2OS [5]; 1 nM) [%] | cell viability (U2OS [5]; 10 nM) [%] | cell viability (U2OS [5]; 100 nM) [%] | cell viability (U2OS [5]; 1000 nM) [%] | cell viability (U2OS [5]; 10000 nM) [%] | relative viability EC50 (HepG2 [6]) [µM] | relative viability EC50 (Vero E6 [7]) [µM] | relative viability EC50 (Caco-2 [8]) [µM] | relative viability EC50 (Calu-3 [9]) [µM] | relative viability EC50 (U2OS [10]) [µM] | drug sensitivity score (HepG2 [11]) | drug sensitivity score (Vero E6 [12]) | drug sensitivity score (Caco-2 [13]) | drug sensitivity score (Calu-3 [14]) | drug sensitivity score (U2OS [15])
1 | COc1ccc(-c2cc(=O)c3c(O)cc(O)cc3o2)cc1O [diosmetin] | 97.7 | 109 | 94.6 | 120 | 86.7 | 95.2 | 96.8 | 91 | 101 | 113 | 95.9 | 91.6 | 101 | 96.6 | 86.3 | 93.2 | 104 | 91.5 | 93.7 | 78.3 | 94.2 | 93.1 | 101 | 96.2 | 90.2 | > 10 | > 10 | > 10 | > 10 | > 10 | 0 | 0 | 0.4 | 1 | 0
2 | CCCCCCCCCCCC1=C(O)C(=O)C=C(O)C1=O [embelin] | 95.9 | 94.4 | 98.9 | 98.6 | 102 | 92.1 | 94.3 | 97.8 | 105 | 97 | 98.2 | 97.2 | 98.5 | 104 | 92.2 | 106 | 98.6 | 110 | 96.2 | 104 | 107 | 95.1 | 101 | 94.7 | 95.3 | > 10 | > 10 | > 10 | > 10 | > 10 | 0 | 0 | 0 | 0 | 0
3 | CC1(C)[C@@H](O)CC[C@]2(C)[C@H]3C(=O)C=C4[C@@H]5C[C@@](C)(C(=O)O)CC[C@]5(C)CC[C@@]4(C)[C@]3(C)CC[C@@H]12 [enoxolone] | 75.2 | 90.9 | 87 | 95.9 | 96 | 93.1 | 99.8 | 95.2 | 103 | 92.5 | 96.6 | 101 | 97 | 87.2 | 96.3 | 110 | 106 | 98.6 | 105 | 99.1 | 99.4 | 93.2 | 95.4 | 99.6 | 98.6 | > 10 | > 10 | > 10 | > 10 | > 10 | 0 | 0 | 0 | 0 | 0
4 | CCOC(=O)c1cnc2c(cnn2CC)c1NN=C(C)C [etazolate] | 94.4 | 93 | 96.6 | 106 | 88.4 | 96.9 | 93.5 | 96.5 | 98.9 | 85.1 | 100 | 96.7 | 102 | 99.6 | 92.9 | 102 | 101 | 96.2 | 94.3 | 90.9 | 101 | 94.7 | 97.1 | 96.6 | 97.7 | > 10 | > 10 | > 10 | > 10 | > 10 | 0 | 0.3 | 0 | 0 | 0
5 | CCOc1cc(C=O)ccc1O [ethyl-vanillin] | 117 | 99.5 | 96.2 | 103 | 97.1 | 106 | 92.8 | 107 | 95.1 | 91.6 | 99.3 | 92.5 | 98.5 | 78.4 | 101 | 98.6 | 108 | 102 | 97.5 | 99.3 | 97.4 | 102 | 96.2 | 101 | 99.9 | > 10 | > 10 | > 10 | > 10 | > 10 | 0 | 0 | 0 | 0 | 0
6 | CCc1cc2c(s1)-n1c(C)nnc1CN=C2c1ccccc1Cl [etizolam] | 104 | 106 | 106 | 93.1 | 108 | 104 | 106 | 105 | 99.8 | 99.6 | 102 | 103 | 96.4 | 94.3 | 99.2 | 101 | 93.2 | 105 | 96.4 | 105 | 98.6 | 102 | 98.8 | 97.3 | 96.5 | > 10 | > 10 | > 10 | > 10 | > 10 | 0 | 0 | 0 | 0 | 0
